Reference: US5637262A, “Photochromic substituted naphthopyran compounds” (Transitions Optical, Inc., priority 1995, dated 1997)

Columns and labels:
Type in all cases: physicochemical
[1] = Activating wavelength by UV spectrophotometer (diethylene glycol dimethyl ether); conditions: for ACTIVATING WAVELENGTH: Table 3; for Activating Wavelength in Diethylene Glycol Dimethyl Ether: Table 1, approximately 0.5 milligram per milliliter in diethylene glycol dimethyl ether
Experimental: The products of Examples 1, 5, 8, 9, and Comparative Examples 1 and 2 were dissolved in diethylene glycol dimethyl ether. The concentrations of the resulting solutions were approximately 0.5 milligram per milliliter. Each solution was tested in a UV spectrophotometer to determine its activating wavelength. The activating wavelength reported in Table 1 is the wavelength at which activation of the photochromic compound occurs in diethylene glycol dimethyl ether. That value corresponds to the absorption peak in the ultraviolet region that is closest to the visible region or the threshold range, i.e., 390 to 410 nanometers, if there is only one absorption peak in this region. If there is more than one absorption peak, the activating wavelength corresponds most closely to the absorption peak that immediately proceeds the peak of longer wavelength in the ultraviolet region or the threshold range.

[2] = Solar response / loss in response on optical bench with 320 nm and 360 nm filters (Part C); conditions: for Δ OD @ 320 nm / Δ OD @ 360 nm: 15 minute exposure; for Δ OD @ 320 nm: 320 nanometer filter; for Δ OD @ 360 nm: 360 nanometer filter; for % LOSS IN RESPONSE: (OD 320 nm - OD 360 nm)/OD 320 nm x 100; for BLEACH RATE T 1/2: polymeric matrix prepared from a diethylene glycol bis(allyl carbonate) composition
Experimental: (§1) The test samples were evaluated for photochromic response rates on an optical bench. The samples were illuminated by a 150 watt Xenon lamp fitted with a copper sulfate bath, a 320 nanometer filter, and a neutral density filter at an intensity of about one sun. A second beam of light provided by a filtered tungsten lamp arranged to pass through the sample area exposed by the UV source was used to monitor changes in transmission of the sample over different wavelength ranges in the visible region of the spectrum. The intensity of the monitoring beam after passing through the sample was measured by means of an IL-1500 radiometer equipped with a silicon detector head and matching filters.
(§2) The Δ OD/Min, which represents the sensitivity of the photochromic compound's response to UV light, was measured using photopic filters on the silicon detector. The response of the filtered detector approximated the luminosity curve. The Δ OD was measured over the first five (5) seconds of UV exposure, then expressed on a per minute basis. The saturation optical density (OD) was taken under identical conditions as the Δ OD/Min, except UV exposure was continued for 20 minutes for the examples in Table 2. The Bleach Rate T 1/2 is the time interval in seconds for the absorbance of the activated form of the naphthopyran in the test polymers to reach one half the highest absorbance at room temperature (72° F., 22.2° C.) after removal of the source of activating light.
The solar response for naphthopyrans of Example 7 and Comparative Examples 3 and 4 was measured using the optical bench described in Part B. The naphthopyrans were imbibed by thermal transfer into test squares of a polymeric matrix prepared from a diethylene glycol bis(allyl carbonate) composition and two optical density measurements were made after 15 minute exposures to a UV source first fitted with a 320 nanometer filter and then fitted with a 360 nanometer filter. The loss in response was calculated by subtracting the optical density obtained with the 360 nanometer filter from the optical density obtained with the 320 nanometer filter and then dividing this figure by the optical density obtained with the 320 nanometer filter and multiplying by 100.
The loss in response measurement, expressed as a percent, simulates the difference between the photochromic response of the compounds exposed to full mid-day sun and to low light conditions, such as early day and late in the day when the lower wavelength components of the UV spectrum are attenuated.

[3] = Photochromic response on optical bench in homopolymer of diethylene glycol bis(allyl carbonate) test squares (Part B); conditions: for BLEACH RATE T 1/2: Table 2, room temperature (72° F., 22.2° C.), homopolymer of diethylene glycol bis(allyl carbonate); for Δ OD @ SATURATION: UV exposure 20 minutes; for Δ OD @ SATURATION / Δ OD/Min SENSITIVITY: 320 nanometer filter, homopolymer test squares; for Δ OD/Min SENSITIVITY: first five (5) seconds of UV exposure, per minute basis
Experimental: Each naphthopyran was dissolved into toluene solvent to form a 4 weight percent solution of the compound. A piece of No. 4 Whatman filter paper was saturated with the naphthopyran solution and allowed to air dry. The dried filter paper was placed on one side of the polymer test square, which measured 1/8 inch (0.3 centimeter)×2 inch (5.1 centimeters)×2 inch (5.1 centimeters). A piece of untreated filter paper was placed on the other side of the polymer test square and the resulting sandwich placed between two plates of flat aluminum metal plates. […] The imbibed test squares were washed with acetone after removal from the oven.
as §1
as §2, with “2.” for “2. The Bleach Rate T 1/2 is the time interval in seconds for the absorbance of the activated form of the naphthopyran in the test polymers to reach one half the highest absorbance at room temperature (72° F., 22.2° C.) after removal of the source of activating light.”

SMILES	ACTIVATING WAVELENGTH [1] [nm]	Δ OD @ 320 nm [2]	Δ OD @ 360 nm [2]	% LOSS IN RESPONSE [2] [%]	BLEACH RATE T 1/2 ([2]; Table 3) [s]	Activating Wavelength in Diethylene Glycol Dimethyl Ether [1] [nm]	BLEACH RATE T 1/2 [3] [s]	Δ OD @ SATURATION [3]	Δ OD/Min SENSITIVITY [3]	also measured
CCCOC(=O)c1cc2c3c(ccc2cc1O)OC(c1ccccc1)(c1ccccc1)C=C3 [Example 1, 3,3-diphenyl-8-hydroxy-9-carbopropoxy-3H-naphtho[2,1-b]pyran]	–	–	–	–	–	408	–	–	–	–
CCCOC(=O)c1cc2c3c(ccc2cc1OC)OC(c1ccccc1)(c1ccccc1)C=C3 [Example 5, 3,3-diphenyl-8-methoxy-9-carbopropoxy-3H-naphtho[2,1-b]pyran]	–	–	–	–	–	382	80	0.55	1.4 Δ OD/Min	Sensitivity (in words) ([3]; compared to comparative examples 1 and 2): increased sensitivity as compared to the compounds of comparative examples 1 and 2
COC(=O)c1cc2c3c(ccc2cc1OC(C)=O)OC(c1ccc(OC)cc1)(c1ccc(OC)cc1OC)C=C3 (stereo not drawn) [Example 8, 3-(2,4-dimethoxy-phenyl)-3-(4-methoxyphenyl)-8-acetoxy-9-carbomethoxy-3H-naphtho-[2,1-b]pyran]	–	–	–	–	–	376	–	–	–	–
COc1ccc2c3c(ccc2c1C)OC(c1ccccc1)(c1ccccc1)C=C3 [Example 9, 3,3-diphenyl-7-methyl-8-methoxy-3H-naphtho[2,1-b]pyran]	–	–	–	–	–	369	–	–	–	–
COc1ccc2c3c(ccc2c1)OC(c1ccccc1)(c1ccccc1)C=C3 [compound 1, 3,3-diphenyl-8-methoxy-3H-naphtho [2,1-b]pyran]	–	–	–	–	–	359	87	0.73	1.25 Δ OD/Min	–
C1=CC(c2ccccc2)(c2ccccc2)Oc2ccc3ccccc3c21 [compound 2, 3,3-diphenyl-3H-naphtho[2,1-b]pyran]	–	–	–	–	–	348	45	0.36	0.87 Δ OD/Min	–
COc1ccc(C2(c3ccc(OC)cc3OC)C=Cc3c(ccc4ccccc34)O2)cc1 (stereo not drawn) [compound 4, 3-(2,4-dimethoxyphenyl)-3-(4-methoxyphenyl)-3H-naphtho[2,1-b]pyran]	348	0.260	0.196	25	338	–	–	–	–	–

Further lines, with some results ahead:

ACTIVATING WAVELENGTH [1] [nm]	Δ OD @ 320 nm [2]	Δ OD @ 360 nm [2]	% LOSS IN RESPONSE [2] [%]	BLEACH RATE T 1/2 ([2]; Table 3) [s]	SMILES	Activating Wavelength in Diethylene Glycol Dimethyl Ether [1] [nm]	BLEACH RATE T 1/2 [3] [s]	Δ OD @ SATURATION [3]	Δ OD/Min SENSITIVITY [3]	also measured
359	0.266	0.249	6	356	COc1ccc(C2(c3ccccc3F)C=Cc3c(ccc4cc(OC)ccc34)O2)cc1 (stereo not drawn) [Comparative Example 3, 3-(2-fluorophenyl)-3-(4-methoxyphenyl)-8-methoxy-3H-naphtho[2,1-b]pyran]	–	–	–	–	–
384	0.187	0.184	2	196	COC(=O)c1cc2c3c(ccc2cc1OC)OC(c1ccc(OC)cc1)(c1ccccc1F)C=C3 (stereo not drawn) [Example 7, 3-(2-fluorophenyl)-3-(4-methoxyphenyl)-8-methoxy-9-carbomethoxy-3H-naphtho[2,1-b]pyran]	–	–	–	–	Bleach Rate T 1/2, i.e., rate of fade (in words) ([2]; Table 3): more acceptable Bleach Rate T 1/2; Reduction in optical density, 360 nm vs 320 nm cutoff filter (in words) ([2]; compared to comparative examples 3 and 4): less reduction in optical density
